System: Histone H3.3
Assay: methylation of Histone H3.3 by PRMT6 fusion proteins, reverse phase resin method of scheme 2
Format: biochemical
Conditions: 500 nM enzyme; 1.7 μM Histone H3.3; 37° C.
Procedure: Assays were performed at 37° C., in a final volume of 125 μl. Each assay contained 1.0 μM unlabeled S-adenosyl-L-methionine (AdoMet), […] S-adenosyl-L-[methyl-^3H]methionine (specific activity 67.3 Ci/mmol, 0.55 μCi/μl, Perkin Elmer), 100 mM Hepes, 0.38 μM bovine serum albumin (BSA), 10% glycerol, 10 nM AdoHcy Nucleosidase (MTAN), and 1.7 μM protein substrate; pH of reaction was 7.6. […] Samples (10 μL) were removed at specified times and were analyzed using either SDS-PAGE or methods related to the present disclosure, as discussed below.
A 10 µL aliquot of the reaction mixture was transferred to 6 μl of sample preparation buffer (8 M Guanidine-HCL in 2.5% trifluoroacetic acid (TFA)), making the final concentrations 3 M Guanidine-HCL and 0.94% TFA in the mixture. Guanidine-HCl denatures the protein and TFA makes the reaction very acidic so that PRMT activity is quenched. […] Eluate was dispensed into 20 ml of scintillation cocktail (Fisher Scientific) and counted in a LSC.
Referring now to FIG. 4, there is shown the comparison of the methylation activities of GST-PRMT6 and His-PRMT6 using the method disclosed in scheme 2. […] The reactions were processed and counted in scintillation cocktail.

Question: “His-PRMT6: His-tagged PRMT6 protein arginine methyltransferase expressed in E. coli BL21 and purified” was tested. Which “fold higher methylation activity compared to GST-PRMT6” value did it give?
Answer: 5 fold

— patent US20100330588A1, “METHOD TO QUANTIFY METHYLTRANSFERASE ACTIVITY” (Utah State University, priority 2009, published 2010)
